Laboratory results taken from US8299083B2, “PDE5 inhibitor compositions and methods for treating cardiac indications” (The Johns Hopkins University, priority 2004, dated 2012).
Several values for one entry are separate records, joined by “and”; a condition that tells them apart may be missing. Equal entries are not always repeated. Where two headings read alike, the source gives them in different places.

Legend:
PKG-1 = PKG-1 activity in isolated adult myocytes; format: cell-based, mouse; parameters: concentration or dose not given beside the values
Protocol: After 10 min, cells were lysed and PKG-1 activity determined.

PI3Kα = PI3Kα activity in TAC hearts; format: in vivo, mouse; settings: 3 week TAC
Protocol: (§1) PI3Kα activity was assessed by Elisa assay following immunoprecipitation of PI3K (Seize X IP Kit, Pierce) using a p85α monoclonal antibody (Cell Signaling), with activity measured by fluorescence polarization (Molecular Devices, Perkin-Elmer Victor 3 plate reader). Akt activity (IP with s473-pAkt Ab, GSK-3 fusion protein substrate) was performed using a commercial kit (Cell Signaling Technology, Beverly, Mass.). PKG-1 activity was assayed by calorimetric analysis, CycLex (Clinisciences, Montrouge, FR) from whole heart lysates.

[1] = system: total cGMP-esterase activity; test: cGMP-esterase (low Km cGMP phosphodiesterase) activity of heart and isolated myocytes; format: biochemical, mouse
myocardial cGMP = test: Myocardial cyclic nucleotide levels; format: in vivo, mouse
Description: Hearts were washed in ice-cold PBS, homogenized in 6% trichloroacetic acid, centrifuged and extracted with water-saturated ether. The aqueous layer was transferred, vacuum dried, and the pellet resuspended in sodium acetate buffer for cAMP and cGMP enzyme immunoassay (Amersham Pharmacia Biotech, Buckinghamshire, UK).

[2] = system: isolated adult murine myocytes; test: Isoproterenol-stimulated contraction of isolated adult cardiac myocytes; format: cell-based, mouse; settings: sildenafil 100 nM
Protocol: Louis, Mo.) for 6-7 min. Ventricles were gently chopped, filtered (150μ mesh), centrifuged (500 RPM×1 min), and rinsed in Tyrode's solution with increasing calcium (final 1.8 mM Ca^2+). Cells were incubated with 5 μM Indo-1 AM (Molecular Probes), rinsed, and studied at 27° C. by field stimulation in an inverted fluorescence microscope (Diaphot 200; Nikon, Inc). Sarcomere length (IonOptix, MA) and whole cell calcium transients were measured.

Akt = Akt activation in TAC hearts (Western blot, activity assay); format: in vivo, mouse; settings: 1 and 9 week TAC
Protocol: Protein was prepared from snap-frozen heart tissue using extraction buffer as described previously^90. Antibodies included calcineurin (1:2000 dilution, BD Transduction Laboratories (San Diego, Calif.), GSK3β, Ser9-phospho-GSK313, Akt, Ser473-phospho-Akt, ERK, Thr202/Thr204-phospho-ERK (1:1000 dilution, Cell Signaling Technology, Beverly, Mass.). Primary antibody binding was visualized by horse radish peroxidase-conjugated secondary antibodies and enhanced chemiluminescence (Pierce, Rockford, Ill.).
as §1

cGMP = cGMP FRET imaging in neonatal rat myocytes; format: cell-based
Protocol: Ventricular myocytes from 1-2 days old Sprague Dawley rats (CharlesRiver Lab, MA) were prepared and transfected with the vector carrying the cGMP sensor cygnet-2.1^77 in which EYFP was substituted with the less pH sensitive variant citrine^89, and imaged eighteen-twenty-four hours after transfection as described^90. Images (50-80 ms exposure) were acquired every 10 seconds using custom software and processed by Imagej (NIH, MD). FRET was the change in 480 nm/545 nm emission intensities (ΔR) upon 430 nm excitation^91 expressed as percent change over the basal intensity (R0). Cells were bathed in HEPES buffered Ringer's modified saline (1 mmol/L CaCl2), at room temperature (20-22° C.).

[3] = system: C57bl6 mice, isoproterenol-stimulated heart; test: Acute isoproterenol-stimulated contractility in intact mice (pressure-volume relations); format: in vivo, mouse
Protocol: Isoproterenol (ISO: 20 ng/kg/minutes i.v.×5 min) with or without PDE5A inhibitor was given to anesthetized intact mice, and in vivo heart function assessed by pressure-volume relations at a fixed atrial pacing rate of 600-650 min^−1. Data were measured at baseline, with ISO, re-baseline, PDE5A-inhibition, and PDE5A inhibition+ISO. The ISO-only response was highly reproducible.

STAT3 = test: IL-6 induced STAT3 activation in neonatal rat myocytes; format: cell-based; settings: sildenafil 1 μM
Protocol: Myocardial tissue extract was electrophoresed in SDS-New Page gel, and probed for both tyrosine phosphorylated (Tyr705) and total Stat3. In additional studies, rat neonatal myocytes were cultured, then exposed to interleukin 6 (IL-6, Cell Signaling, 100 ng/ml) for one hour. […] In other studies, cells were pre-transfected (Lipofectamine™, Invitrogen) with mixed oligonucleotide silencing RNAs for STAT3 (siRNA, SmarTTpool Stat3). Protein extracts were obtained from myocyte extracts after the 1 hour incubation period, and probed for phosphorylated and total protein levels of Stat1 (Tyr701) and Stat3 (Tyr705) (Cell Signaling Inc.). siRNA was transfected into neonatal myocytes.

[4] = Plasma sildenafil levels in healthy volunteers; format: in vivo; settings: human, po, 100 mg, 100 mg oral
Description: Forty healthy volunteers were recruited from the general population in response to advertisements posted in the surrounding community. Subjects were screened by medical history, physical examination, and transthoracic echocardiogram. Individuals with heart disease, atherosclerosis, hypertension, diabetes mellitus, pulmonary hypertension, renal or hepatic disease, smoking, pregnancy, or under treatment with nitrates, adrenergic-blocking drugs, or medicines known to interfere with sildenafil pharmacokinetics were excluded. […] All subjects were instructed to fast for >6 hours prior to study. […] Intravenous dobutamine (5 μg/kg/min) was then administered for 5 minutes to achieve a stable response, and measurements repeated (D1). Dobutamine was discontinued, and 15 minutes provided to return to the baseline state. […] Data were again recorded for a second baseline (B2), and during a second dobutamine infusion (D2) using the identical protocol as for the first test. Plasma sildenafil and its metabolite […] measured in each subject by liquid chromatography and mass spectrometry (SFBC Analytical Labs, North Wales, Pa.).

[5] = inhibitor combined with isoproterenol

- proportion of total cGMP-esterase activity attributable to PDE5 ([1]; 3 week TAC hearts): ~60%
- PDE5A-dependent cGMP-esterase activity by radio-enzyme assay ([1]; NTG, n=9): 32±17.3%
- percent of total cGMP-esterase activity blocked by co-incubation ([1]; sham control hearts (baseline)): approximately 30%
- concentration at 75 min ([4]; subjects excluded from analysis, read-out: plasma concentration, mean of four subjects with very low levels): 3.6 nM
- concentration at 75 min ([4]; subjects excluded from analysis, read-out: plasma concentrations, each of four subjects with very low levels): < 6 nM
- concentration at 75 min ([4]; Free plasma sildenafil concentration, 75 minutes after dose): 44 ± 29 nM
SMILES: CCCc1nn(C)c2c(=O)[nH]c(-c3cc(S(=O)(=O)N4CCN(C)CC4)ccc3OCC)nc12 [sildenafil]
- enhancement of PKG-1 activity (PKG-1; basal conditions, inhibitor alone): ~10%
- rise in PKG-1 activity (PKG-1; [5]): 50% and 70%
- rise in PKG-1 activity over ISO alone (PKG-1; [5]): 30%
- TAC-increased PI3Kα activity (PI3Kα): suppressed
- total myocardial cGMP (myocardial cGMP; TAC hearts, chronic co-treatment): declined
- myocardial cAMP levels (myocardial cGMP; basal or TAC conditions): did not alter myocardial cAMP levels
- total myocardial cGMP (myocardial cGMP; sham controls, chronic treatment): did not change
- isoproterenol-enhanced contraction of isolated cardiac muscle cells [2]: blunted
- TAC-increased Akt activity (Akt): suppressed this response at both time points to near baseline
- cGMP FRET signal (cGMP): enhanced the FRET signal
- cGMP FRET signal (cGMP; listed as SIL): raised cellular cGMP
- isoproterenol-stimulated contractility in intact heart ([3]; acute intravenous administration): marked suppression of this adrenergic stimulation response
- effect on the heart at rest (dP/dtmax) ([3]; given alone, no ISO): no effect on the heart at rest
- IL-6 induced STAT activation (STAT3): prevented the STAT activation
